Laboratory results taken from patent publication US9745266B2 (THE REGENTS OF THE UNIVERSITY OF COLORADO, A BODY CORPORATE, priority 2013, dated 2017).
In brackets after ≈: the same amount, converted by molar mass.

system: not listed separately; test: Mammalian cytotoxicity, CellTiter-Glo viability assay; format: cell-based, human; conditions: human, HeLa cells
Procedure: To evaluate the cytotoxicity of Of1 in mammalian cells, a cell viability assay was carried out using CellTiter-Glo luminescent cell viability assay kit (Promega). Human cervixcal adenocarcinoma HeLa cells were seeded on white, cell-culture treated 96-well plates (Corning: 3917) with Dulbecco's modified Eagle's medium (DMEM) supplemented with 10% fetal calf serum (FCS), 1% penicillin/streptomycin, at the densities of 20,000 cells/well. The medium volume for each well was 100 μL. Cells were incubated at 37° C. in 5% CO2/95% air for 16 hours. The medium was removed from each well and replaced with 99 μL of warmed fresh medium. To each well, 1 μL of Of1 analog was added in DMSO to final concentrations of 0.5-32 μg/mL. Each series was performed in triplicate. After incubation at 37° C. for another 24 hours, the plates were equilibrated to room temperature for 30 minutes. 100 μL of CellTiter-Glo reagent (Promega) was added to each well and mixed for 2 minutes on an orbital shaker. The plate was incubated at room temperature for another 10 minutes to stabilize luminescent signal. The luminescence of each sample was recorded in an Envision Multilabel Plate Reader (Perkin Elmer).

SMILES | GI50 at 24 h [µg/mL]
C=C1CCCC2Nc3c(F)cc(Br)cc3C12CCNS(=O)(=O)c1ccc(Br)cc1 (centres unmarked) [Cpd 13d, 4-Bromo-N-[2-(6-bromo-8-fluoro-4-methylidene-2,3,4,4a,9,9a-hexahydro-1H-carbazol-4a-yl)ethyl]benzene-1-sulfonamide] | 22 (≈ 40.4 µM)
C=C1CCCC2Nc3c(F)cc(Br)cc3C12CCNS(=O)(=O)c1ccc(Br)cc1C (centres unmarked) [Cpd 13n, 4-bromo-N-[2-(6-bromo-8-fluoro-4-methylidene-2,3,4,4a,9,9a-hexahydro-1H-carbazol-4a-yl)ethyl]-2-methylbenzene-1-sulfonamide] | 13.5 (≈ 24.2 µM)
C=C1CCCC2Nc3c(F)cc(Br)cc3C12CCNS(=O)(=O)c1ccc(Cl)c(Cl)c1 (centres unmarked) [Cpd 13f, N-[2-(6-bromo-8-fluoro-4-methylidene-2,3,4,4a,9,9a-hexahydro-1H-carbazol-4a-yl)ethyl]-3,4-dichlorobenzene-1-sulfonamide] | 31 (≈ 58 µM)
C=C1CCCC2Nc3c(F)cc(Br)cc3C12CCNS(=O)(=O)c1ccc(C(F)(F)F)cc1 (centres unmarked) [Cpd 13i, N-[2-(6-bromo-8-fluoro-4-methylidene-2,3,4,4a,9,9a-hexahydro-1H-carbazol-4a-yl)ethyl]-4-(trifluoromethyl)benzene-1-sulfonamide] | 8.7 (≈ 16.3 µM)
C=C1CCC[C@@H]2Nc3c(F)cc(Br)cc3[C@]12CCNS(=O)(=O)c1ccc(OC(F)F)c(Cl)c1 (relative stereo) | 15.4 (≈ 27.2 µM)
C=C1CCCC2Nc3c(F)cc(Br)cc3C12CCNS(=O)(=O)c1ccc(C)cc1 (centres unmarked) [Cpd 13b, N-[2-(6-bromo-8-fluoro-4-methylidene-2,3,4,4a,9,9a-hexahydro-1H-carbazol-4a-yl)ethyl]-4-methylbenzene-1-sulfonamide] | 22 (≈ 45.9 µM)
C=C1CCCC2Nc3c(F)cc(Br)cc3C12CCNS(=O)(=O)c1ccc(Br)c(C(F)(F)F)c1 (centres unmarked) [Cpd 13m, 4-Bromo-N-[2-(6-bromo-8-fluoro-4-methylidene-2,3,4,4a,9,9a-hexahydro-1H-carbazol-4a-yl)ethyl]-3-(trifluoromethyl)benzene-1-sulfonamide] | 8.3 (≈ 13.6 µM)
C=C1CCCC2Nc3c(Cl)cc(Cl)cc3C12CCNS(=O)(=O)c1ccc(Cl)cc1 (centres unmarked) [Cpd 6k, 4-Chloro-N-[2-(6,8-dichloro-4-methylidene-2,3,4,4a,9,9a-hexahydro-1H-carbazol-4a-yl)ethyl]benzene-1-sulfonamide] | 13.6 (≈ 28.8 µM)
C=C1CCCC2Nc3c(F)cc(Br)cc3C12CCNS(=O)(=O)c1ccc(Br)c(F)c1 (centres unmarked) [Cpd 13k, 4-Bromo-N-[2-(6-bromo-8-fluoro-4-methylidene-2,3,4,4a,9,9a-hexahydro-1H-carbazol-4a-yl)ethyl]-3-fluorobenzene-1-sulfonamide] | 17.5 (≈ 31.1 µM)
C=C1CCCC2Nc3c(F)cc(Br)cc3C12CCNS(=O)(=O)c1ccc(Cl)nc1 (centres unmarked) [Cpd 13r, N-[2-(6-bromo-8-fluoro-4-methylidene-2,3,4,4a,9,9a-hexahydro-1H-carbazol-4a-yl)ethyl]-6-chloropyridine-3-sulfonamide] | 16.7 (≈ 33.3 µM)
C=C1CCCC2Nc3c(F)cc(Br)cc3C12CCNS(=O)(=O)c1ccc(F)cc1 (centres unmarked) [Cpd 13c, N-[2-(6-bromo-8-fluoro-4-methylidene-2,3,4,4a,9,9a-hexahydro-1H-carbazol-4a-yl)ethyl]-4-fluorobenzene-1-sulfonamide] | 18.3 (≈ 37.9 µM)
C=C1CCCC2Nc3c(F)cc(Br)cc3C12CCNS(=O)(=O)c1cc2ccccc2o1 (centres unmarked) [Cpd 13t, N-[2-(6-bromo-8-fluoro-4-methylidene-2,3,4,4a,9,9a-hexahydro-1H-carbazol-4a-yl)ethyl]-1-benzofuran-2-sulfonamide] | 12.3 (≈ 24.3 µM)
C=C1CCCC2Nc3c(F)cc(Br)cc3C12CCNS(=O)(=O)c1ccc(NC(C)=O)cc1 (centres unmarked) [Cpd 13g, N-(4-{[2-(6-bromo-8-fluoro-4-methylidene-2,3,4,4a,9,9a-hexahydro-1H-carbazol-4a-yl)ethyl]sulfamoyl}phenyl)acetamide] | 32 (≈ 61.3 µM)
C=C1CCCC2Nc3c(F)cc(Br)cc3C12CCNS(=O)(=O)c1ccc(Br)cc1C(F)(F)F (centres unmarked) [Cpd 13l, 4-Bromo-N-[2-(6-bromo-8-fluoro-4-methylidene-2,3,4,4a,9,9a-hexahydro-1H-carbazol-4a-yl)ethyl]-2-(trifluoromethyl)benzene-1-sulfonamide] | 21 (≈ 34.3 µM)
C=C1CCCC2Nc3ccc(Br)cc3C12CCNS(=O)(=O)c1ccc(Br)cc1 (centres unmarked) [Cpd 12g, 4-Bromo-N-[2-(6-bromo-4-methylidene-2,3,4,4a,9,9a-hexahydro-1H-carbazol-4a-yl)ethyl]benzene-1-sulfonamide] | 40 (≈ 76 µM)
C=C1CCCC2Nc3c(F)cc(Br)cc3C12CCNS(=O)(=O)c1ccc(I)cc1 (centres unmarked) [Cpd 13e, N-[2-(6-bromo-8-fluoro-4-methylidene-2,3,4,4a,9,9a-hexahydro-1H-carbazol-4a-yl)ethyl]-4-iodobenzene-1-sulfonamide] | 19.6 (≈ 33.1 µM)
C=C1CCCC2Nc3c(F)cc(Br)cc3C12CCNS(=O)(=O)c1ccc(Br)c(Br)c1 (centres unmarked) [Cpd 13j, 3,4-Dibromo-N-[2-(6-bromo-8-fluoro-4-methylidene-2,3,4,4a,9,9a-hexahydro-1H-carbazol-4a-yl)ethyl]benzene-1-sulfonamide] | 20 (≈ 32.1 µM)
C=C1CCCC2Nc3c(F)cc(Br)cc3C12CCNS(=O)(=O)c1ccc(Cl)cc1 (centres unmarked) [Cpd 6l, N-[2-(6-bromo-8-fluoro-4-methylidene-2,3,4,4a,9,9a-hexahydro-1H-carbazol-4a-yl)ethyl]-4-chlorobenzene-1-sulfonamide] | 18.1 (≈ 36.2 µM)
C=C1CCCC2Nc3ccc(Cl)cc3C12CCNS(=O)(=O)c1ccc(Cl)cc1 (centres unmarked) [Cpd 6a, 4-Chloro-N-[2-(6-chloro-4-methylidene-2,3,4,4a,9,9a-hexahydro-1H-carbazol-4a-yl)ethyl]benzene-1-sulfonamide] | 35 (≈ 80 µM)
C=C1CCCC2Nc3ccc(Br)cc3C12CCNS(=O)(=O)c1ccc(Cl)c(Cl)c1 (centres unmarked) [Cpd 12i, N-[2-(6-bromo-4-methylidene-2,3,4,4a,9,9a-hexahydro-1H-carbazol-4a-yl)ethyl]-3,4-dichlorobenzene-1-sulfonamide] | 12.8 (≈ 24.8 µM)
C=C1CCCC2Nc3c(F)cc(Br)cc3C12CCNS(=O)(=O)c1ccc(Br)c(C)c1 (centres unmarked) [Cpd 13o, 4-bromo-N-[2-(6-bromo-8-fluoro-4-methylidene-2,3,4,4a,9,9a-hexahydro-1H-carbazol-4a-yl)ethyl]-3-methylbenzene-1-sulfonamide] | 12.5 (≈ 22.4 µM)
C=C1CCCC2Nc3ccc(Br)cc3C12CCNS(=O)(=O)c1ccc(I)cc1 (centres unmarked) [Cpd 12h, N-[2-(6-bromo-4-methylidene-2,3,4,4a,9,9a-hexahydro-1H-carbazol-4a-yl)ethyl]-4-iodobenzene-1-sulfonamide] | 33 (≈ 57.6 µM)
C=C1CCCC2Nc3c(F)cc(Br)cc3C12CCNS(=O)(=O)c1cn(C)cn1 (centres unmarked) [Cpd 13s, N-[2-(6-bromo-8-fluoro-4-methylidene-2,3,4,4a,9,9a-hexahydro-1H-carbazol-4a-yl)ethyl]-1-methyl-1H-imidazole-4-sulfonamide] | 23 (≈ 49 µM)
C=C1CCCC2Nc3c(F)cc(Br)cc3C12CCNS(=O)(=O)c1cncc(Br)c1 (centres unmarked) [Cpd 13q, 5-bromo-N-[2-(6-bromo-8-fluoro-4-methylidene-2,3,4,4a,9,9a-hexahydro-1H-carbazol-4a-yl)ethyl]pyridine-3-sulfonamide] | 11.2 (≈ 20.5 µM)
C=C1CCCC2Nc3c(F)cc(Br)cc3C12CCNS(=O)(=O)c1cc(Br)c(Br)s1 (centres unmarked) [Cpd 13p, 4,5-dibromo-N-[2-(6-bromo-8-fluoro-4-methylidene-2,3,4,4a,9,9a-hexahydro-1H-carbazol-4a-yl)ethyl]thiophene-2-sulfonamide] | 14.6 (≈ 23.2 µM)
C=C1CCCC2Nc3c(F)cc(Br)cc3C12CCNS(=O)(=O)c1ccc(OC)cc1 (centres unmarked) [Cpd 13a, N-[2-(6-bromo-8-fluoro-4-methylidene-2,3,4,4a,9,9a-hexahydro-1H-carbazol-4a-yl)ethyl]-4-methoxybenzene-1-sulfonamide] | 49 (≈ 98.9 µM)
C=C1CCCC2Nc3c(F)cc(Br)cc3C12CCNS(=O)(=O)c1ccc(C#N)cc1 (centres unmarked) [Cpd 13h, N-[2-(6-bromo-8-fluoro-4-methylidene-2,3,4,4a,9,9a-hexahydro-1H-carbazol-4a-yl)ethyl]-4-cyanobenzene-1-sulfonamide] | 17 (≈ 34.7 µM)

system: MRSA ATCC BAA-44; test: MIC in the presence of 20 μM Of1 / alkaloid; format: cell-based, S. aureus; conditions: MIC / MIC (+20 μM Of1), MRSA ATCC BAA-44
Procedure: Indoline alkaloid compounds were then screened for the ability to potentiate the activity of methicillin against MRSA. A multi-drug resistant MRSA strain (ATCC: BAA-44) was selected for the initial screening. […] To each well, 20 μM of each individual indoline alkaloid was added and the plates were incubated at 37° C. for 16 hrs.
The MRSA strain ATCC BAA-44 and the methicillin-sensitive S. aureus (MSSA) strain ATCC 25923 were used to determine the MIC values of various antimicrobial compounds in the presence of 20 μM Of1. The experiment was conducted similarly to the CLSI MIC determination described previously; however, MHB was supplemented with 40 μM Of1 prior to set up and inoculation. The final concentration of Of1 after inoculation with BAA-44 was 20 μM.

SMILES | fold of potentiation
CC1=C(C(=O)O)N2C(=O)[C@@H](NC(=O)[C@H](N)c3ccccc3)[C@H]2SC1 [cephalexin] | 16
C[C@@H](O)[C@H]1C(=O)N2C(C(=O)O)=C(SCCN=CN)C[C@H]12 [imipenem] | 8

same assay, conditions: MRSA ATCC BAA-44; in the presence of 20 μM Of1

SMILES | MIC (+Of1)
Cc1onc(-c2ccccc2)c1C(=O)N[C@@H]1C(=O)N2[C@@H]1SC(C)(C)[C@@H]2C(=O)O [oxacillin] | 0.5 µg/mL
CC1=C(C(=O)O)N2C(=O)[C@@H](NC(=O)[C@H](N)c3ccccc3)[C@H]2SC1 [cephalexin] | 16 µg/mL
C[C@@H](O)[C@H]1C(=O)N2C(C(=O)O)=C(SCCN=CN)C[C@H]12 [imipenem] | .0625 µg/mL

system: MRSA ATCC BAA-44; test: MIC, CLSI broth microdilution; format: cell-based, S. aureus; conditions: Staphylococcus aureus; MRSA ATCC BAA-44, compound alone; read-out: MIC

SMILES | MIC [µg/mL]
Cc1onc(-c2ccccc2)c1C(=O)N[C@@H]1C(=O)N2[C@@H]1SC(C)(C)[C@@H]2C(=O)O [oxacillin] | 64 (≈ 159 µM)
CC1=C(C(=O)O)N2C(=O)[C@@H](NC(=O)[C@H](N)c3ccccc3)[C@H]2SC1 [cephalexin] | 256 (≈ 737 µM)
C[C@@H](O)[C@H]1C(=O)N2C(C(=O)O)=C(SCCN=CN)C[C@H]12 [imipenem] | 0.5 (≈ 1.67 µM)
